Key:
[1] = tested on: eIF4E; settings: 4E-BP1,2 non-canonical motifs; cited from earlier work
Source text: The immunoprecipitation assays shown in Fig. 1e–g indicate that similar to CUP, Thor and 4E-T contain NC motifs that interact with the lateral binding surface of eIF4E. In human 4E-BP1,2, the NC IPGVTS/T motif (located C-terminally to the C motif), increases the binding affinity of the proteins for eIF4E by approximately three orders of magnitude. However, the IPGVTS/T motif is not conserved across the animal kingdom (Supplementary Fig. 2c). Nevertheless, several hydrophobic residues are present in the corresponding region in Dm Thor (residues Pro76–Pro84; Supplementary Fig. 2c). || Owing to their lack of conservation, it has remained unclear whether non-canonical motifs are present in all 4E-BPs[38]. […] At the functional level, non-canonical motifs have been proposed to play an auxiliary role and have been mainly implicated in the regulation of the affinity of eIF4E for the mRNA cap structure through allosteric effects. Specifically, the binding of the 4E-BP1,2 non-canonical ...

[2] = tested on: endogenous eIF4E and HA-tagged 4E-BPs in S2 cells; assay: Immunofluorescence localization in S2 cells; type: cell-based, Drosophila melanogaster; settings: S2 cells, LMB 100 nM, 12 h
[3] = tested on: CRM1; design: method as in PMID 15465908, PMID 10856257, PMID 9190288; settings: cited from earlier work
[4] = tested on: eIF4E (WT) bound to GST-CUP, GST-Thor, GST-4E-T or GST-eIF4G; assay: Competition by MBP-eIF4G with 4E-BPs or eIF4G bound to WT eIF4E; type: biochemical, Drosophila melanogaster; settings: excess MBP-eIF4G (residues 578–650), 30 min at 4 °C, Strep-Tactin pull down
Procedure: (§1) For the competition assays shown in Figs 5a,c and 6a,b, complexes containing SHN- or MBP-tagged eIF4E (WT or II-AA mutant) bound to GST-eIF4G (residues 578–650), GST-Thor (full length), GST-4E-T (residues 1–58) or GST-CUP (311–440) were obtained by coexpressing the corresponding proteins in E. coli BL21 (DE3) STAR cells (30 ml culture). The cells were resuspended in lysis buffer (5 ml) that was supplemented with EDTA-free protease inhibitor (Roche) and 1 mg ml^−1 lysozyme and lysed by sonication. The cleared lysates were incubated with 400 μl of Protino Glutathione Agarose 4B (Macherey-Nagel) for 1 h. The beads were washed three times with lysis buffer, and the proteins were eluted after 10 min of incubation with lysis buffer containing 25 mM L-glutathione. The protein complexes were stored at −20 °C or used in competition assays.
(§2) The purified recombinant complexes were mixed with excess amounts of the indicated purified competitor proteins (Fig. 5c) or with bacterial lysates expressing the competitor proteins (Figs 5a and 6) and incubated for 30 min at 4 °C. After incubation, 20 μl of immobilized γ-Aminophenyl-m^7GTP or Strep-Tactin Sepharose (IBA), were added to the samples and incubated for another 40 min at 4 °C. […] The proteins were analyzed by 10–15% SDS–PAGE followed by staining with Coomassie blue staining.

[5] = tested on: eIF4E II-AA mutant bound to GST-4E-BP; assay: Competition by MBP-eIF4G with 4E-BPs bound to eIF4E II-AA mutant; type: biochemical, Drosophila melanogaster; settings: 30 min at 4 °C
Procedure: as §1, §2

human 4E-BP1,2: human eIF4E-binding proteins 1 and 2 with NC IPGVTS/T motif
effect of NC motif binding on affinity of eIF4E for the cap structure (in words) [1]: increases the affinity for the cap structure

CCC(=C/[C@H](C)C/C=C/C(C)=C/[C@@H](C)C(=O)[C@@H](C)[C@H](O)[C@@H](C)C/C(C)=C/C(=O)O)/C=C/[C@@H]1OC(=O)C=C[C@@H]1C [LMB, Leptomycin B, reference compound]
nuclear accumulation of 4E-BP upon LMB (in words) [2]: induced the nuclear accumulation of CUP and 4E-T proteins
inhibition of nuclear export by CRM1 (in words) [3]: inhibits nuclear export by CRM1

B1: MBP-eIF4G: MBP-eIF4G (residues 578–650) (protein)
chain: PETTLNDKQDSTDLKVKVSAKISSIINYNEGQWSPNNPSGKKQYDREQLLQLREVKASRIQPEVKNVSILPQP
modifications: left off: MBP, N-terminal, kept | GB1, C-terminal, kept
displacement of proteins bound to WT eIF4E (in words) [4]: did not displace CUP, Thor, 4E-T or eIF4G bound to WT eIF4E
displacement of CUP bound to eIF4E II-AA (in words) ([5]; excess MBP-eIF4G (residues 578–650) vs GST-CUP (311–440)): partially displaced CUP
displacement of Thor bound to eIF4E II-AA (in words) ([5]; excess MBP-eIF4G (residues 578–650) vs GST-Thor (full length)): completely displaced full-length Thor

— paper PMC4164784, “4E-BPs require non-canonical 4E-binding motifs and a lateral surface of eIF4E to repress translation” (Nature Communications, 2014)
